We go through three molecules from US20080085563A1, “Detection of Gadolinium Chelates” (IDEXX LABORATORIES, INC., priority 2006, published 2008).

Where a SMILES comes first, the peptide text is derived from it.

The conditions of data set [1]: weak acid of low-pH buffering system; first value; cited from earlier work.
Data set [2] is described as follows: Effect of masking agent on gadolinium response in the arsenazo III assay. The settings on record: optimal amount of HDMP, pH 2.4. The text has this: In general, chelating agents, including EDTA, EGTA, TTHA, EDTPO, phenanthroline, and 8-hydroxyquinoline have a greater affinity for rare earth metals, such as gadolinium, than for calcium. HDMP, however, is unusual in its ability to bind calcium preferentially over gadolinium. […] This essentially, although not completely, eliminates the interference by calcium with the method of the invention. […] In one aspect of the invention, the reagent includes HDMP. For example, a reagent of the invention can contain about 10 to about 2000 mM HDMP. In various aspects, the reagent contains about 10 to about 800 mM HDMP, and more particularly about 70 mM HDMP. […] Higher levels of HDMP may be selected to further remove calcium and iron interference based upon analytical sensitivity, matrix effects (e.g., diet, drugs, toxicants, […] icterus), solubility, sample quality (e.g., hemolysis) and storage stability. […] Commercial […]®, Berlex Laboratories, Wayne N.J.) ranging from 50-400 μM was added to 0.07 mL of canine serum. The canine serum was added to the arsenazo III reagent in varying amounts. […] This is obtained by subtracting the absorbance of each solution at 750 nm from its absorbance at 654 nm, reducing interference from wavelength-independent absorbance due to sample turbidity.

Data set [3] in a line: Masking of ferric ion interference in the gadolinium-arsenazo III assay. The settings on record: 70 mM HDMP in reagent. Here is the method:
In one aspect of the invention, the reagent includes HDMP. For example, a reagent of the invention can contain about 10 to about 2000 mM HDMP. In various aspects, the reagent contains about 10 to about 800 mM HDMP, and more particularly about 70 mM HDMP. […] Higher levels of HDMP may be selected to further remove calcium and iron interference based upon analytical sensitivity, matrix effects (e.g., diet, drugs, toxicants, […] icterus), solubility, sample quality (e.g., hemolysis) and storage stability. […] The ferric sulfate increased the net absorbance of the solution ([…] nm minus A750 nm). This amount of ferric ion is approximately 10 times the amount that would be contributed by 0.07 mL of a normal canine serum sample.

Data set [4] in a line: Masking of calcium interference in the gadolinium-arsenazo III assay. From the text:
For instance, while calcium interference decreases exponentially with pH, it is not completely eliminated. In addition, the affinity of gadolinium for arsenazo dye decreases with pH, reducing both linearity and sensitivity of gadolinium response. In one aspect, the method of the invention allows for a pH window where the pH is high enough to allow highly efficient measurement of gadolinium chelate while reducing calcium interference by 99% relative to its maximal binding to Arsenazo at pH 6. Nonetheless, even within this optimally selective pH window, interference from both calcium and ferric ions is substantial. To remedy this persistent residual calcium interference, in another aspect of the invention, the compound HDMP, commonly used as an oral iron chelator for treatment of thalassemia (iron overload), is added to the reagent of the invention to effectively mask interference from both calcium and ferric ions without substantially reducing gadolinium assay response. In general, chelating agents, including EDTA, EGTA, TTHA, EDTPO, phenanthroline, and 8-hydroxyquinoline have a greater affinity for rare earth metals, such as gadolinium, than for calcium. […] This is obtained by subtracting the absorbance of each solution at 750 nm from its absorbance at 654 nm, reducing interference from wavelength-independent absorbance due to sample turbidity.

Consider `NCC(=O)NCC(=O)O` [Diglycine] (H-Gly-Gly-OH), for which the “Acid pKa” value in data set [1] is 3.14.
`Cc1c(O)c(=O)ccn1C` [HDMP, 3-hydroxy-1,2-dimethyl-4(1H)-pyridone]: the “reduction in gadolinium signal” value in data set [2] is recorded as “less than 10%”. In data set [3], the ferric ion masked entry is recorded as “greater than 95%”. Further, in data set [4] (70 mM HDMP in reagent), the calcium masked is reported as 87%. In addition, the “reduction in calcium interference” value in data set [4] (optimal amount of HDMP, pH 2.4) is listed as “greater than 90%”.
For the molecule `O=C1CC(=O)NC(=O)N1` [Barbituric acid], the “Acid pKa” value in data set [1] is 4.04.
